According to PubChem BioAssay AID1902 (Broad Institute, 2009):
Calls of active or inactive are those of the source.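 How the source made its calls: active means EC50 no more than a set limit of log units above the highest dose; inactive means the rest.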

The compounds below were run against S. pyogenes SKKanGAS, kanamycin survival, BacTiterGlo, 6 h (assay: S. pyogenes SKKanGAS kanamycin growth inhibitors – SKKanGAS strain, luminescence, dose confirmation, streptokinase promoter inhibitor project, dose response (AID 1902);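 further: lower survival reflects blocked streptokinase promoter driving kanamycin resistance gene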).

| SMILES | EC50 |
| --- | --- |
| O=C(Nc1nnc(-c2ccccn2)o1)c1cccc(Cl)c1 | 1.66 µM |
| COc1ccc(C(=O)N2CCc3c([nH]c4ccccc34)C2C(F)(F)F)cc1 (stereo not given) | > 15 µM (inactive) |
| CC(C)C[C@H](NC(=O)c1nc[nH]c1C(=O)NCc1ccccc1)C(=O)OCc1ccccc1 | 5.01 µM |
| CCc1ccc(/C=C/C(=O)c2cc(Br)ccc(=O)c2O)cc1 | 0.417 µM |
| Oc1nc(Nc2ccc(Cl)cc2Cl)sc1/C=C1\C=Nc2ccccc21 | 1.76 µM |
| Cc1ccc(NS(=O)(=O)c2cc([N+](=O)[O-])ccc2NNC(=S)Nc2cccc(Cl)c2)c(C)c1 | 0.865 µM |
| COc1cccc(N2C(=O)C3NN=C(C(=O)CN4C(=O)c5ccccc5C4=O)C3C2=O)c1 (stereo not given) | > 15 µM (inactive) |
| Oc1ccc(Oc2ccc(Oc3ccc(O)cc3)cc2)cc1 | 5.25 µM |
| S=C(NCCC(c1ccccc1)c1ccccc1)Nc1cccc(Cl)c1 | 5.82 µM |
| CCn1c(SCC(=O)N2CC(C)OC(C)C2)nc2c([nH]c3ccccc32)c1=O (stereo not given) | > 15 µM (inactive) |
| CC(C)c1ccc(NC(=O)c2cc(S(=O)(=O)NCC3COc4ccccc4O3)ccc2F)cc1 (stereo not given) | 5.37 µM |
| O=C(c1cnn2c(C(F)(F)F)cc(-c3ccc(F)cc3)nc12)N1CCc2ccccc2C1 | 12.1 µM |
| Cc1nn(-c2ccccc2)c(C)c1/C=N/n1c(-c2ccc(C(C)(C)C)cc2)n[nH]c1=S | 2.62 µM |
| Cc1ccc(Cl)cc1N1CCN(C(=O)c2cn(C)c(=O)c3c2c2ccccc2n3C)CC1 | 4.92 µM |
| CCOC(=O)C1=C(C)NC2=C(C(=O)c3ccccc32)C1c1ccc([N+](=O)[O-])o1 (stereo not given) | 12.8 µM |
| COc1ccc(CC(=O)N/N=C/c2cc([N+](=O)[O-])cc(Br)c2O)cc1 | 4.91 µM |
| COc1cc(C)c(C(=O)CC(=O)c2c(C)cc(OC)cc2C)c(C)c1 | 1.61 µM |
| COCc1cc(=O)[nH]c(Nc2nc3ccc(C)cc3o2)n1 | 2.27 µM |
| C=CCSc1nsc(NC(=O)Nc2ccc(F)cc2)n1 | 3.7 µM |
| COc1cccc(C2CC(c3cccs3)=NN2C(=O)CSc2nc3c(cnn3-c3ccc(F)cc3)c(=O)[nH]2)c1OC (stereo not given) | 2.03 µM |
| CCn1c(=O)c(C(=O)NNC(=O)c2ccccc2F)c(O)c2ccccc21 | 3.17 µM |
| Cc1ccc(S(=O)(=O)N2c3ccccc3OCC2C(C)(C)C)cc1 (stereo not given) | 2.59 µM |
| O=C(/C(N=Nc1cccc([N+](=O)[O-])c1)=C(/O)c1ccc(Br)cc1)C(F)(F)F | 4.28 µM |
| CC(C)OC(=O)c1cccnc1N1CCN(c2cccc(Cl)c2)CC1 | 4.36 µM |
| O=C(O)c1ccc(NC(=S)NC(=O)c2cccc(COc3ccccc3)c2)cc1 | 4.45 µM |

| SMILES | EC50 |
| --- | --- |
| CCOC(=O)c1c(-c2ccc(OC)cc2)csc1/N=C/C1=C(O)CCCC1=O | 14.5 µM |
| CCOc1ccc(NC(=O)c2ccc3c(=O)n(-c4ccc(OC)cc4OC)c(=S)[nH]c3c2)cc1 | 7.86 µM |
| COc1ccc(C(C)=O)cc1COc1cc(C)c(Cl)c(C)c1 | > 15 µM (inactive) |
| COc1cc2c3c(c1)/C(=C1/SC(=S)NC1=O)C(=O)N3C(C)(C)C=C2C | 1.1 µM |
| NNC(=O)/C(=N/Nc1ccccc1)S(=O)(=O)c1ccc(Cl)cc1 | 8.15 µM |
| CCC(CC)c1nnc(NC(=O)c2ccc3ccccc3n2)s1 | 0.72 µM |
| CCCC(Oc1ccc(Br)cc1)c1nc2c3cc(OC)c(OC)cc3nc(=S)n2[nH]1 (stereo not given) | 0.145 µM |
| Cc1cc(C)c[n+](C2=C([O-])c3ccccc3C(=O)/C2=N\S(=O)(=O)c2cccs2)c1 | 1.85 µM |
| CCN(CC)C(=O)c1cc(-c2ccc(Br)cc2)on1 | > 15 µM (inactive) |
| CC1COc2c(N3CCN(C)CC3)c(F)cc3c(=O)c(C(=O)O)cn1c23 (stereo not given) | 3.69 µM |
| C/C(=N\Nc1nc2ccc(Cl)cc2o1)c1ccccc1 | 2.33 µM |
| CCn1cnc2c1c(=O)n(CC(=O)Nc1cc(C)on1)c(=O)n2Cc1ccccc1 | > 15 µM (inactive) |
| CCCOc1ccc(/C=C/c2c([N+](=O)[O-])c(=O)n(C)c(=O)n2C)cc1 | 7.11 µM |
| Cc1ccnn2c(-c3ccccc3)c3c(=O)n(C)c(=O)n(C)c3c12 | > 15 µM (inactive) |
| CC1Cc2ccccc2N1C(=S)NC(=O)c1ccc(Cl)cc1Cl (stereo not given) | 4.26 µM |
| Fc1ccc(Cn2cccc2C2=NC(c3ccccc3)CO2)cc1 (stereo not given) | 7.34 µM |
| C/C(=N\NC(=O)c1ccc(Cl)c(Cl)c1)c1ccccn1 | 0.063 µM |
| Cc1sc2nc(-c3ccccn3)[nH]c(=O)c2c1-c1ccccc1 | 1.28 µM |
| CCCOc1ccc(C2C(C(=O)c3cc4ccccc4o3)=C(O)C(=O)N2c2cc(C)on2)cc1OC (stereo not given) | 1.98 µM |
| CCCCSc1nc(C)cc(SCC(=O)N/N=C/c2cccc(OC)c2O)n1 | 2.14 µM |
| COc1ccc([C@H]2Oc3cc(O)cc(O)c3C(=O)C2[C@@H]2C(=O)c3c(O)cc(O)cc3O[C@@H]2c2ccc(OC)cc2)cc1 (stereo not given in full) | 1.61 µM |
| Nc1nc(-c2ccccc2)c(N=Nc2cccc3ccccc23)s1 | 4 µM |
| COc1ccc(-c2ncn(CCC#N)c2[N+](=O)[O-])cc1 | 2.72 µM |
| Cc1ccc(Nc2nc(N)nc(CN3CCN(c4ccccc4)CC3)n2)cc1Cl | 13.2 µM |
| CCCN(CC(=O)Nc1ccccc1OC)C(=O)c1ccncc1 | > 15 µM (inactive) |

| SMILES | EC50 |
| --- | --- |
| O=C(NCc1nc(-c2ccc(C(F)(F)F)cc2)no1)Nc1cc(Cl)cc(Cl)c1 | 2.31 µM |
| Cc1ccc(SCc2cc(=O)[nH]c(SCC(=O)Nc3cc(Cl)ccc3Cl)n2)cc1 | 6.79 µM |
| COc1cccc(C2C3=C(N=c4s/c(=C\c5cccc(O)c5)c(=O)n42)c2ccccc2CC3)c1OC (stereo not given) | 5.37 µM |
| Cc1ccc(C(=O)N/N=C/c2ccc([N+](=O)[O-])s2)cc1 | 14 µM |
| CCCCn1c(O)c(N=NC(=O)c2ccccc2NS(=O)(=O)c2cccs2)c2ccccc21 | 5.06 µM |
| Cc1cccc(C(=O)NNC(=O)c2c(O)c3ccccc3n(C)c2=O)c1 | 6.96 µM |
| O=C(Nc1cccc(-c2nnc(-c3ccccc3)o2)c1)c1ccc(Br)o1 | 8.48 µM |
| Brc1ccc2[nH]c3c(N4CCc5ccccc5C4)ncnc3c2c1 | 6.22 µM |
| Clc1ccc(CO/N=C(\Cn2ccnc2)c2ccc(Cl)cc2Cl)c(Cl)c1 | 1.95 µM |
| COc1ccc(N2CCN(C(=O)Cc3csc(NC(=O)Nc4ccccc4OC)n3)CC2)cc1 | 12.7 µM |
| C=C(C)COc1ccc(-c2n[nH]c(C)c2-c2ccccc2)c(O)c1 | 2.4 µM |
| CC(C)(C)c1nc(NC(=O)Nc2ccccc2)sc1Br | 6.3 µM |
| O=S(=O)(c1ccc(F)cc1)c1nc(-c2ccccc2)oc1N1CCOCC1 | > 15 µM (inactive) |
| Cc1nn(C)c(C(=O)Nc2ccc(S(=O)(=O)NC34CC5CC(CC(C5)C3)C4)cc2)c1Br | 4.9 µM |
| O=C(c1ccc(Cl)cc1)c1cnc(Nc2ccccc2Cl)s1 | 6.77 µM |
| CC12CCC(C/C1=N\N=C1\NC(=O)/C(=C\c3cccc(Br)c3)S1)C2(C)C (stereo not given) | 0.638 µM |
| COc1ccc(Cl)cc1C(Nc1cccnc1)c1ccc2cccnc2c1O (stereo not given) | 6.28 µM |
| CCOC(=O)N1CCN(C(=O)c2ccc3c(c2)N(C)C(=O)/C(=C\c2ccc(OCC)c(OC)c2)S3)CC1 | 0.593 µM |
| CC1CCN(c2nc(-c3ccc(F)cc3)cc(C(F)(F)F)n2)CC1 | 1.71 µM |
| COc1cc(/C=N/Nc2nc(Nc3ccccc3)nc(-n3nc(C)cc3C)n2)cc(OC)c1OC | 3.14 µM |
| Cc1ccccc1Nc1c(-c2ccccn2)nc2c(C)cccn12 | 0.397 µM |
| COc1ccccc1-c1cc(-c2ccccc2)nc(SCC(=O)O)c1C#N | 1.97 µM |
| CO[C@@]1(NC(=O)Cc2cccs2)C(=O)N2C(C(=O)O)=C(COC(N)=O)CS[C@@H]21 | 3.33 µM |
| CCCCc1ccc(NC(=S)NCCc2ccc(F)cc2)cc1 | 5.7 µM |
| COCC1CCN(C(=O)c2ccc3oc(Cc4ccccc4)nc3c2)C1 (stereo not given) | > 15 µM (inactive) |
